The target in this experiment is PDE5A1 (Homo sapiens, UniProt O76074). The experiment is described as follows: cGMP hydrolysis by purified PDE5A1, cGMP Lumit bioluminescent readout. In kind it is biochemical.

In general, IC50 refers to the concentration needed to halve the response being measured. Higher therefore signals lower potency. In turn, `CC(C)Cn1c(=O)n(C)c(=O)c2[nH]cnc21` [IBMX] returned an IC50 of 3.8 µM.

The values above are taken from PMC10714432 (ACS Pharmacology & Translational Science, 2023).
